Measured values: patent publication US20070054965A1, “AMPK activating agent” (Kao Corporation, priority 2005, published 2007)

Experiments:
[1] = tested on: AMPKα; experiment: AMPK-activating action in C2C12 muscle cells, AMPKα phosphorylation (Western blot); type: cell-based, murine; details: for Phospho-AMPKα: 60 minutes, C2C12, relative value to control defined as 100
Procedure: (§1) A muscle cell line (C2C12) was used to evaluate the AMPK-activating action of nootkatone according to the procedures below with AMPKα and AMPKβ phosphorylation as indexes.
Cells of the murine muscle cell line (C2C12) were seeded onto a 25 cm^2 flask and cultured in DMEM (+10% FBS, +antimicrobial agent) at 37° C. for 1 to 2 days. When the cells became confluent, the culture solution was removed, and the cells were washed with PBS (−) and further cultured for 7 to 8 days in fresh DMEM (2% (V/V) horse serum), which was in turn replaced by a fresh culture solution every 2 to 3 days. The culture solution was then removed, and the cells were washed with PBS (−) and further cultured in fresh DMEM (−FBS) for 1 day. After the removal of the culture solution, the cells were cultured in DMEM (−FBS) containing a predetermined concentration of nootkatone (obtained from Wako Pure Chemical Industries, Ltd.) for 60 minutes. After the culture solution was subsequently removed and the cells were washed with PBS (−), 200 μL of cell lysis solution (10 mmol/L Tris (pH 7.4), 50 mmol/L sodium chloride, 30 mmol/L sodium pyrophosphate, 0.5% (V/V) Triton X-100, protease inhibitor cocktail (SIGMA P2714), phosphatase inhibitor cocktail-1 (SIGMA P2850), phosphatase inhibitor cocktail-2 (SIGMA P5726)) was added and the cell lysis solution was collected with a cell scraper. The collected cell lysis solution was well homogenized by passing it through a syringe with a 23G needle three times and then left on ice for 30 minutes. The homogenate was centrifuged at 15000 r/min at 4° C. for 15 minutes, and the resulting supernatant protein was used in the measurement below.
(§2) The concentration of the supernatant protein was measured, and the protein concentrations were then adjusted among samples to constant concentrations. […]
(§3) Predetermined amounts (approximately 20 to 40 μg) of the samples for electrophoresis were subjected to SDS-PAGE (12% gel) and transferred to a membrane. Then, phospho-AMPKα and phospho-AMPKβ were detected by using anti-phospho-AMPKα ([…]) antibodies (manufactured by Cell Signaling Technology, Inc.) or anti-phospho-AMPKβ (Ser108) antibodies (manufactured by Cell Signaling Technology, Inc.) as primary antibodies, anti-rabbit-HRP antibodies (manufactured by Amersham Biosciences) as secondary antibodies, and Phototope-HRP Western Detection System (manufactured by Cell Signaling Technology, Inc.) as a detection reagent. The degree of AMPK activation was indicated as a relative value to that of a control (sample-free group) defined as 100 by digitizing (pixelizing) detected band strength by image analysis (EDAS290 image analysis system; KODAK).

[2] = tested on: AMPKβ; experiment: AMPK-activating action in C2C12 muscle cells, AMPKβ phosphorylation (Western blot); type: cell-based, murine; details: 60 minutes, relative value to control defined as 100
Procedure: as §1
Cells of the murine muscle cell line (C2C12) were seeded onto a 25 cm^2 flask and cultured in DMEM (+10% FBS, +antimicrobial agent) at 37° C. for 1 to 2 days. When the cells became confluent, the culture solution was removed, and the cells were washed with PBS (−) and further cultured for 7 to 8 days in fresh DMEM (2% (V/V) horse serum), which was in turn replaced by a fresh culture solution every 2 to 3 days. The culture solution was then removed, and the cells were washed with PBS (−) and further cultured in fresh DMEM (−FBS) for 1 day. After the removal of the culture solution, the cells were cultured in DMEM (−FBS) containing a predetermined concentration of nootkatone (obtained from Wako Pure Chemical Industries, Ltd.) for 60 minutes. […]
as §2, §3

[3] = tested on: lipid metabolism activity (β-oxidation activity); experiment: Lipid metabolism activity (β-oxidation activity) of liver and skeletal muscle after oral administration; type: in vivo, mice
Procedure: Seven-week-old Balb/c male mice were divided into 2 groups, to which a physiological saline (control) or nootkatone at 200 mg/kg of body weight was then orally administered for 10 consecutive days. Then, their livers and skeletal muscles (gastrocnemius muscle+soleus muscle) were collected. The livers and skeletal muscles were respectively homogenized in a buffer (250 mM sucrose, 1 mM EDTA in 10 mM HEPES (pH 7.2)), and the insoluble tissue residues were removed by centrifugation to obtain supernatants. The obtained supernatants were measured for protein levels. The protein levels were adjusted among samples to constant levels, and the samples were used in the measurement of lipid metabolism activity (β-oxidation activity). A 100-μg aliquot of the supernatant protein was reacted at 37° C. for 20 minutes with 0.1 μCi [^14C]-palmitic acid in a buffer (50 mM Tris-HCl (pH 8.0), 40 mM NaCl, 2 mM KCl, 2 mM MgCl2, 1 mM DTT, 5 mM ATP, 0.2 mM L-carnitine, 0.2 mM NAD, 0.06 mM FAD, 0.12 mM CoA, 3 mM α-cyclodextrin) at the final volume of 200 μL. The reaction was terminated with 200 μL of 0.6 N perchloric acid, and the unreacted [^14C]-palmitic acid was removed 3 times with 1 mL hexane. Lipid-degrading activity was measured by measuring radioactivity of the aqueous layer.
The degree of the lipid-degrading activity was indicated as a relative value to that of the control defined as 100.

[4] = Endurance-enhancing and antifatigue effects, maximum swimming time of mice in a current water pool; type: in vivo; details: for Maximum swimming time: 7 L/min, Balb/c male mice
Procedure: The endurance-enhancing and antifatigue effects of nootkatone were evaluated as described below. Nootkatone used was a product of Avocado.
The endurance-enhancing and antifatigue effects were evaluated according to the measurement method of maximum swimming time of mice (Reference: Am J Physiol Regul Integr Comp Physiol, Vol. 288, R708-R715, 2005) in a current water pool. The experimental pool used was a clear acrylic pool (90 cm long×45 cm wide×45 cm deep) filled to a depth of 38 cm with water maintained at 34° C. with a heater. The current in the pool was generated with a pump (C-P60H, manufactured by Hitachi), and the current speed was adjusted by connecting Water flowmeter (Tofco) to the pump and opening and closing a valve. The current speed was measured with a digital current meter (SV-101-25S, Sankou Seimitsu Kogyo).
Experimental animals used were 5-week-old Balb/c male mice (Charles River Laboratories, Inc.). The mice were preliminarily raised for 1 week under a constant raising environment (23±2° C., light period: 7 a.m. to 7 p.m.) and acclimated. In subsequent 1-week training, the mice were accustomed to swimming exercise three times a week (subjected to swimming exercise for 30 minutes at a current speed of 5 L/min on the first day, and for 30 minutes at a current speed of 6 L/min on the third and fifth days). […] The mice were divided into 2 groups, a test diet group and a control diet group, each containing 8 mice, to prevent a difference in maximum swimming time between the groups. Diets prepared in the formulation composition shown in Table 8 were used to raise the mice for 10 weeks. During this period, the measurement of maximum swimming time (7 L/min) and training (6 L/min, 30 minutes) were performed once every week.

[5] = Antiobesity, antidiabetic and antilifestyle-related disease effects in C57BL/6 mice raised on high-fat diet; type: in vivo
Procedure: The antiobesity, antidiabetic, and antilifestyle-related disease effects of nootkatone were evaluated as described below.
Seven-week-old C57BL/6 male mice were divided into 3 groups each containing 10 mice and raised with each diet of the composition described in Table 2.
Twenty-two weeks later, their body weights were measured, while blood was collected from the mice under ether anesthesia and under non-fasting conditions to measure serum glucose, cholesterol, triglyceride, insulin, and leptin levels. The amount of visceral fat (epididymal fat, retroperitoneal fat, and perirenal fat) was also measured.

[6] = Group 3 (0.5% nootkatone), 22 weeks
[7] = Group 3: high-fat diet with 0.5% nootkatone, 22 weeks, C57BL/6 male mice
[8] = serum, non-fasting, Group 3: high-fat diet with 0.5% nootkatone, 22 weeks

## C=C(C)[C@@H]1CCC2=CC(=O)C[C@@H](C)[C@]2(C)C1 (stereo in doubt) [Nootkatone, 4,4a,5,6,7,8-hexahydro-6-isopropenyl-4,4a-dimethyl-2(3H)-naphthalenone]
[1]; C2C12, summary of Table 1
  AMPK-activating action in the muscle cells: strong AMPK-activating action
[1]; nootkatone 50 μmol/L
  Phospho-AMPKα: 402
[1]; nootkatone 100 μmol/L
  Phospho-AMPKα: 952
[1]; nootkatone 150 μmol/L
  Phospho-AMPKα: 1077
[2]; nootkatone 50 μmol/L
  Phospho-AMPKβ: 241
[2]; nootkatone 100 μmol/L
  Phospho-AMPKβ: 314
[2]; nootkatone 150 μmol/L
  Phospho-AMPKβ: 358
[3]; 200 mg/kg orally for 10 consecutive days, Balb/c male mice, gastrocnemius + soleus muscle, relative value to control defined as 100
  Lipid-degrading activity (β-oxidation activity), skeletal muscle: 271
[3]; 200 mg/kg orally for 10 consecutive days, Balb/c male mice, relative value to control defined as 100
  Lipid-degrading activity (β-oxidation activity), liver: 273
[3]; mice given nootkatone 200 mg/kg, 10 days, versus control
  Lipid-degrading activity (β-oxidation activity) of the liver and skeletal muscle: remarkably increased
[4]; after 10 week raising on test diet with 0.2% nootkatone
  Maximum swimming time: 40.01 ± 3.17 min
[4]; before raising (baseline of test diet group)
  Maximum swimming time: 27.31 ± 1.72 min
[4]; test diet containing nootkatone as compared with the control diet group
  Maximum swimming time after 10-week raising: significantly prolonged
[5]; Group 3 (0.5% nootkatone) as compared with Group 2
  Increment of body weights and amount of visceral fat: remarkably reduced
[5]; [6]
  Effect on rise in blood cholesterol level: excellent inhibitory effect
  Effect on rise in blood insulin level: excellent inhibitory effect
  Effect on rise in blood leptin level: excellent inhibitory effect
  Effect on rise in blood triglyceride level: excellent inhibitory effect
  Effect on rise in blood-glucose level: excellent inhibitory effect
[5]; [7]
  Body weight: 30.4 g
  Epididymal fat: 0.47 g
  Perirenal fat: 0.07 g
  Retroperitoneal fat: 0.15 g
[5]; [8]
  Glucose: 212.3 mg/dL
  Insulin: 1.26 ng/mL
  Leptin: 6.2 ng/mL
  Total cholesterol: 131.3 mg/dL
  Triglyceride: 54.3 mg/dL
